Test results taken from article PMC4549706, “Rational Design of Highly Potent and Slow-Binding Cytochrome bc1 Inhibitor as Fungicide by Computational Substitution Optimization” (Scientific Reports, 2015).
≈ marks a conversion by molar mass, not a printed value. Read-outs that look alike come from different tables or passages of the source.

Legend:
[1] = tested on: Pseudoperonospora cubensis (Berk. et Curt.); assay: In vivo fungus growth inhibitory rate at 200 mg/L, downy mildew
Method: [a] Compounds are named as “series number-site number plus substitution group number” a: -F, b: -Cl, c:
-Br, d: -NO2, e: -CH3, f: -CF3, g: -OCH3, h: -OH, i: -NH2, j: -COOH.
[b] Substitution number and group.
[c] CH is “series 1” and N is “series 2”. […]
Table S2 Fungus growth inhibitory rate of target compounds (200 mg/L).
Comp. No. R X Sphaerotheca fuliginea Pseudoperonospora cubensis

[2] = tested on: Sphaerotheca fuliginea (S. fuliginea); assay: Greenhouse fungicidal activity, potted cucumber, powdery mildew; type: in vivo; details: Podosphaera fuliginea
Method: (§1) For a further validation, the controlling efficacy of compound 18 against downy mildew and powdery mildew disease was tested in greenhouse and field models.
(§2) The fungicidal activity of compound 18 against P. cubensis and S. fuliginea was evaluated according to a previously published method[30] and a potted-plant test method was adopted. […]
(§3) Greenhouse Fungicidal Activity
(§4) The fungicidal activity of compound 18 against P. cubensis and S. fuliginea was evaluated according to a previously published method 17 and a potted-plant test method was adopted. Commercial fungicide AZ was evaluated as a control under the same conditions.
(§5) Cucumber seeds were soaked in water for 2 h at 50℃ and then were kept moist for 24 h at 28℃ in an incubator. When the radicles grew to 0.5 cm, the seeds were grown in plastic pots containing a 1:1 (v/v) mixture of vermiculite and peat. At the stage of two leaves, all of the cucumber plants used for inoculations were divided into two groups to test for protective and curative effects. In the protective action, compound 18 and commercial fungicide AZ were sprayed on the leaves before the inoculation. However, the fungal inoculation and chemical spraying are reverse in the […] action.
(§6) In the protective action, compound 18 and commercial fungicide AZ were sprayed with a hand spray on the surface of the seed leaves at concentrations of 200, 100, 50, 25, 12.5, 6.25, 3.125, 1.5625 mg/L. After 2 h, inoculations of P. cubensis and S. fuliginea were carried out by spraying a conidial suspension (concentration […]), which was repeated 4 times.
(§7) After inoculation, the cucumber seedlings were cultured in a culture room at 25±2℃, 70%~80% relative humidity, and 16L:8D photoperiod for 8 d. In the curative action, the fungal inoculation and chemical spraying were reversed with the protective action. Foliar spray with fungicides to inoculated cucumber plants (before disease expression) till near-run-oﬀ was made on the 7th and 15th day after emergence. The fungicidal activity was evaluated when the nontreated cucumber plant fully developed symptoms. The area of inoculated and treated leaves covered by disease symptoms was assessed and compared to that of nontreated ones to determine the average disease index.
(§8) The disease range (i) was visually evaluated on the […]rst true leaf and ranked as a percentage infected area using a rating of 0, 1, 3, 5, 7, or 9, denoting proportions of disease over the whole leaf area of 0%, < 5%, 6–10%, 11–25%, 26–50%, and > 50%, respectively 18.
(§9) The disease index and control effect of compound 18 were calculated via the following […]
(§10) Disease index (%) = ∑(Ni × i)/(N × 9) × 100 […]

[3] = tested on: Pseudoperonospora cubensis (P. cubensis); assay: Greenhouse fungicidal activity, potted cucumber, downy mildew; type: in vivo
Method: as §1, §2, §3, §4, §5, §6, §7, §8, §9, §10

| SMILES | Fungus growth inhibitory rate, Pseudoperonospora cubensis [1] | EC90 ([2]; greenhouse, cucumber, sprayed after inoculation, read-out: curative EC90 against S. fuliginea) | EC90 ([2]; greenhouse, cucumber, sprayed before inoculation, read-out: protective EC90 against S. fuliginea) | EC90 ([3]; greenhouse, cucumber, sprayed after inoculation, read-out: curative EC90 against P. cubensis) | EC90 ([3]; greenhouse, cucumber, sprayed before inoculation, read-out: protective EC90 against P. cubensis) | Fungus growth inhibitory rate, Pseudoperonospora cubensis ([1]; listed as Comp. 18) | EC90 ([2]; read-out: curative EC90 against S. fuliginea) | EC90 ([2]; read-out: protective EC90 against S. fuliginea) | EC90 ([3]; read-out: curative EC90 against P. cubensis) | EC90 ([3]; read-out: protective EC90 against P. cubensis) |
| --- | --- | --- | --- | --- | --- | --- | --- | --- | --- | --- |
| CO/C=C(/C(=O)OC)c1ccccc1Oc1cc(Oc2ccccc2C#N)ncn1 [AZ, Azoxystrobin, reference compound] | 94% | > 500 µg/mL | 254 µg/mL (≈ 630 µM) | 50.7 µg/mL (≈ 126 µM) | 5.36 µg/mL (≈ 13.3 µM) | – | – | – | – | – |
| COC=C(C(=O)OC)c1ccccc1CSc1nc2cc(OC)ccc2s1 [Compound 18] | completely inhibited | – | – | – | – | 100% | 32.9 µg/mL (≈ 81.9 µM) | 1.89 µg/mL (≈ 4.71 µM) | 120 µg/mL (≈ 300 µM) | 4.29 µg/mL (≈ 10.7 µM) |
